# Experiments:
# Assay in all cases: relative viability (nuclei count vs DMSO), 5 days (fraction); higher = more cells survive
# Sunitinib + Luminespib = compound: CCN(CC)CCNC(=O)c1c(C)[nH]c(/C=C2\C(=O)Nc3ccc(F)cc32)c1C [Sunitinib] + CCNC(=O)c1noc(-c2cc(C(C)C)c(O)cc2O)c1-c1ccc(CN2CCOCC2)cc1 [Luminespib] (partner 0.01 µM)
# Method in brief: (§1)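 Lung cancer cell lines were seeded in 1536-well plates and dosed by pin tool the next day, with either a single drug or a fixed anchor-drug dose combined with five library-drug doses (not always all listed) spaced in √10 steps. Five days later, one step fixed the cells and stained their nuclei (final 0.05% Triton X-100, 1% formaldehyde, 1 ug/ml Hoechst), and nuclei were counted on 4× images. Relative viability is the nuclei count in treated wells divided by the count in vehicle wells, and each value is the median of duplicate plates.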
# Sunitinib + Tozasertib = compound: CCN(CC)CCNC(=O)c1c(C)[nH]c(/C=C2\C(=O)Nc3ccc(F)cc32)c1C [Sunitinib] + Cc1cc(Nc2cc(N3CCN(C)CC3)nc(Sc3ccc(NC(=O)C4CC4)cc3)n2)n[nH]1 [Tozasertib] (partner 0.1 µM)
# Method in brief: as §1
# Sunitinib + Alpelisib = compound: CCN(CC)CCNC(=O)c1c(C)[nH]c(/C=C2\C(=O)Nc3ccc(F)cc32)c1C [Sunitinib] + Cc1nc(NC(=O)N2CCC[C@H]2C(N)=O)sc1-c1ccnc(C(C)(C)C(F)(F)F)c1 [Alpelisib] (partner 2 µM)
# Method in brief: as §1
# Sunitinib + Dasatinib = compound: CCN(CC)CCNC(=O)c1c(C)[nH]c(/C=C2\C(=O)Nc3ccc(F)cc32)c1C [Sunitinib] + Cc1nc(Nc2ncc(C(=O)Nc3c(C)cccc3Cl)s2)cc(N2CCN(CCO)CC2)n1 [Dasatinib] (partner 0.075 µM)
# Method in brief: as §1
Cell Line,relative viability (Sunitinib + Luminespib; first compound 0.02 µM),relative viability (Sunitinib + Luminespib; first compound 0.06325 µM),relative viability (Sunitinib + Luminespib; first compound 0.2 µM),relative viability (Sunitinib + Luminespib; first compound 0.6325 µM),relative viability (Sunitinib + Luminespib; first compound 2 µM),relative viability (Sunitinib + Tozasertib; first compound 0.02 µM),relative viability (Sunitinib + Tozasertib; first compound 0.06325 µM),relative viability (Sunitinib + Tozasertib; first compound 0.2 µM),relative viability (Sunitinib + Tozasertib; first compound 0.6325 µM),relative viability (Sunitinib + Tozasertib; first compound 2 µM),relative viability (Sunitinib + Alpelisib; first compound 0.02 µM),relative viability (Sunitinib + Alpelisib; first compound 0.2 µM),relative viability (Sunitinib + Alpelisib; first compound 0.6325 µM),relative viability (Sunitinib + Alpelisib; first compound 2 µM),relative viability (Sunitinib + Dasatinib; first compound 0.02 µM),relative viability (Sunitinib + Dasatinib; first compound 0.06325 µM),relative viability (Sunitinib + Dasatinib; first compound 0.2 µM),relative viability (Sunitinib + Dasatinib; first compound 0.6325 µM),relative viability (Sunitinib + Dasatinib; first compound 2 µM),relative viability (Sunitinib + Alpelisib; first compound 0.06325 µM)
NCI-H2085,0.494,0.399,0.489,0.46,0.377,0.863,0.835,1.02,0.747,0.605,0.998,0.992,0.988,0.978,0.271,0.269,0.222,0.256,0.26,–
NCI-H2087,0.195,0.172,0.166,0.158,0.174,0.253,0.259,0.329,0.284,0.233,0.904,1.11,1.23,1.01,0.717,1.25,1,0.945,0.669,1.06
NCI-H2126,0.875,0.918,0.897,0.985,0.866,0.846,0.852,0.963,0.92,0.81,0.736,0.818,0.747,0.715,0.601,0.67,0.636,0.719,0.638,0.76
NCI-H2170,0.642,0.586,0.729,0.686,0.565,0.771,0.961,0.715,0.808,0.838,0.757,0.998,0.914,0.777,0.505,0.653,0.656,0.548,0.544,0.782
NCI-H2228,0.138,0.145,0.148,0.177,0.114,0.23,0.266,0.279,0.207,0.223,0.735,1,0.717,0.538,0.526,0.607,0.613,0.494,0.408,0.729
NCI-H2347,0.486,0.355,0.377,0.238,0.558,0.599,0.481,0.59,0.607,0.523,0.996,1.13,1.09,0.947,0.255,0.292,0.302,0.257,0.394,1.03
NCI-H2405,0.672,0.616,0.854,0.947,0.722,0.757,0.794,0.811,0.761,0.809,0.816,0.862,1.06,0.713,0.214,0.206,0.224,0.23,0.212,0.811
NCI-H3122,0.0868,0.127,0.0866,0.0951,0.0797,0.429,0.475,0.539,0.433,0.567,–,0.84,0.725,0.803,0.725,0.985,0.84,0.932,0.853,0.894
